Data: patent US20170067909A1, “ASSAY-READY RECOMBINANT CELLS TRANSIENTLY OVEREXPRESSING GENES ENCODING DRUG TRANSPORTER PROTEINS AND/OR DRUG METABOLIZING ENZYMES” (Corning Incorporated, priority 2012, published 2017)
Numbering of substitutions follows the chain as printed. Like-named read-outs stand apart in the source and are kept apart here.

Legend:
OATP1B1 = target: T1, OATP1B1 (Homo sapiens, UniProt Q9Y6L6)
T1 sequence (Q9Y6L6 1-691): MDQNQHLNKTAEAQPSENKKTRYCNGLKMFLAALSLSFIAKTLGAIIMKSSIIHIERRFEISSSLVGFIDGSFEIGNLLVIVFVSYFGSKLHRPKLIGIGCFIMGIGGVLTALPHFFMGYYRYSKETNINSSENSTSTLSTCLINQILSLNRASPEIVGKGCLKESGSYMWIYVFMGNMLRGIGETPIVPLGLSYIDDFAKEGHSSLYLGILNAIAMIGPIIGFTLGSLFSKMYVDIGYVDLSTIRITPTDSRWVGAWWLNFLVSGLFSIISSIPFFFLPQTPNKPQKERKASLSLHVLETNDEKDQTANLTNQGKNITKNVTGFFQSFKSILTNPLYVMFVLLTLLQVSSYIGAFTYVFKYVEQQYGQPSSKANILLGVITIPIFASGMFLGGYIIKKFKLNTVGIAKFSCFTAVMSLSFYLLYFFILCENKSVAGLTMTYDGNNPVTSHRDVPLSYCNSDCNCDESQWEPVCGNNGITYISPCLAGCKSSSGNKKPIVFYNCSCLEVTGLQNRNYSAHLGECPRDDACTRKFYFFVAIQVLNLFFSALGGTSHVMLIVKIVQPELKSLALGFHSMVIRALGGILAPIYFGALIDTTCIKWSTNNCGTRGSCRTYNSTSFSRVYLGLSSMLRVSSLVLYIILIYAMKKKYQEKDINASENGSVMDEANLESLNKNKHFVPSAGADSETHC

OATP1B1*15 = target: T2, OATP1B1*15 (Homo sapiens, UniProt Q9Y6L6, N130D/V174A); assay: OATP1B1 single nucleotide polymorphism panel uptake assay, OATP1B1*15 HEK-293 cells
T2 sequence (Q9Y6L6 1-691 N130D/V174A): T1 sequence (Q9Y6L6 1-691) with N130D, V174A

[1] = target: T3, Organic Anion-Transporting Polypeptide 1B1 (Homo sapiens, UniProt Q9Y6L6); assay: Suspension assay, centrifugation method, Corning TransportoCells OATP1B1*1a; type: in vitro ADME; settings: 5× substrate solution containing 25 μM, 10 minutes at 37° C., 600 k cells/well
T3 construct: host or cells: HEK293 cells, gene delivered by electroporation
T3 sequence (Q9Y6L6 1-691): T1 sequence (Q9Y6L6 1-691)
Excerpt: In this experiment, a suspension assay for characterizing the activity of a drug transporter protein in cryopreserved, Corning® TransportoCells™ was developed. More specifically, the use of a centrifugation method versus a vacuum manifold for separating unreacted substrate in characterizing the activity of Organic Anion-Transporting Polypeptide 1B1 was investigated. Corning® TransportoCells™ transiently transfected with the gene OATP1B1*1a were obtained from Corning Life Sciences (Cat. No. 354859). In the Corning® TransportoCells™, the gene OATP1B1*1a was delivered into HEK293 cells via electroporation and the HEK293 cells were recovered and cryopreserved 1 hour post-electroporation. In order to obtain suitable expression of the Organic Anion-Transporting Polypeptide 1B1 encoded by OATP1B1*1a, the Corning® TransportoCells™ were thawed, cultured, and harvested.
The cells were cultured in T-175 Vented-Cap Culture Flasks with Poly-D-Lysine (hereinafter, “PDL”; available from Corning Life Sciences, Cat. No. 354539) with plating medium for 48 hours at 37° C. and 8% CO2. The plating medium is detailed in Table 16. After 24 hours, sodium butyrate (obtained from Sigma) was added to the cells to reach final 5 mM. After 48 hours, the cells were rinsed twice with Phosphate-Buffered Saline (hereinafter, “PBS”, obtained from Corning).
The cells were then harvested with 0.05% Trypsin (obtained from Sigma) and washed once with Hank's Balanced Salt Solution (hereinafter, “HBSS”) buffer (with Ca^2+ and Mg^2+, obtained from Corning). Then, the cells were resuspended in HBSS (obtained from Corning) to a final cell density of 3×10^6 cells/ml. Two suspension assay experiments were then performed to characterize the activity of Organic Anion-Transporting Polypeptide 1B1 in the Corning® TransportoCells™.
In a first suspension assay experiment, use of a centrifugation method was investigated to separate excess substrate and cells. Referencing FIG. 20, in the first suspension assay experiment, the resuspended Corning® TransportoCells™ were aliquotted (200 μl per well at a density of 600 k cells/well) into either a Corning® 96 Well Clear Round Bottom TC-Treated Microplate (available from Corning Life Sciences, Cat. No. 3799) or a Corning® 96 Well Clear V-Bottom TC-Treated Microplate (available from Corning Life Sciences, Cat. No. 3894). […] The cells were then incubated for 10 minutes at 37° C. After the incubation time, the reaction was stopped by adding ice cold HBSS buffer (50 μl) to the cells and placing the microplates on ice. Then, the microplates were centrifuged at 3000 g for 1 minute at 4° C. […] The cell lysis was then subjected to the appropriate protein analysis and/or fluorescence analysis to characterize the activity of Organic Anion-Transporting Polypeptide 1B1.

Row | Compound | UPTAKE ACTIVITY pOATP1B1 (OATP1B1; 293-F cells, 0.2 × 10^6 cells/well, after thaw from cryopreservation) | UPTAKE ACTIVITY pOATP1B1 (OATP1B1; 293-F in CD293, cryo, 24 hr post plating, 0.4×10^6 cells/well) | UPTAKE ACTIVITY pOATP1B1 (OATP1B1; 293-F in CD293, cryo, 72 hr post plating, 0.4×10^6 cells/well) | UPTAKE ACTIVITY pOATP1B1 (OATP1B1; 293-F in CD293, fresh, 48 hr post plating, 0.4×10^6 cells/well) | UPTAKE ACTIVITY pOATP1B1 (OATP1B1; FS293 cells, 0.2 × 10^6 cells/well, after thaw from cryopreservation) | UPTAKE ACTIVITY pOATP1B1 (OATP1B1; FS293 in Excell, cryo, 24 hr post plating, 0.4×10^6 cells/well) | UPTAKE ACTIVITY pOATP1B1 (OATP1B1; FS293 in Excell, cryo, 48 hr post plating, 0.4×10^6 cells/well) | UPTAKE ACTIVITY pOATP1B1 (OATP1B1; FS293 in Excell, cryo, 72 hr post plating, 0.4×10^6 cells/well) | Uptake Activity (OATP1B1; recovery time prior to cryopreservation 24 HOURS) | Uptake Activity (OATP1B1; recovery time prior to cryopreservation 30 MIN) | uptake activity / transport compared to OATP1B1*1a cells (in words) (OATP1B1*15) | Uptake Activity OATP1B1 ([1]; Round Bottom) | Uptake Ratio ([1]; Round Bottom) | Uptake Activity OATP1B1 ([1]; V-Bottom) | Uptake Ratio ([1]; V-Bottom)
1 | C[C@]12CC[C@@H]3c4ccc(O)cc4CC[C@H]3[C@@H]1CC[C@@H]2O[C@@H]1O[C@H](C(=O)O)[C@@H](O)[C@H](O)[C@H]1O [E17βG] | 20.2 pmol/mg/min | 27.4 pmol/mg/min | 9.9 pmol/mg/min | 15.4 (85%) pmol/mg/min | 10.5 pmol/mg/min | 36.4 pmol/mg/min | 10.0 pmol/mg/min | 6.6 pmol/mg/min | 0.59 pmol/mg/min | 5.78 pmol/mg/min | Significantly impaired transport | – | – | – | –
2 | fluorescein methotrexate [FMTX] | – | – | – | – | – | – | – | – | – | – | Significantly impaired transport | 0.38 pmol/mg/min | 10.9 | 1.04 pmol/mg/min | 102.3
